According to patent publication US9993459B2, “Selective HDAC6 inhibitors and uses thereof” (Universiteit Gent, priority 2015, dated 2018):
pIC50: −log10 of the molar value. “And” between values parts separate entries of the source, which are not always exact repeats. Equal values may be shown once.

Key:
HDAC6 = biological target: T1, HDAC6 (Homo sapiens, UniProt Q9UBN7); experiment: In vitro HDAC6 inhibition; assay type: biochemical; conditions: for inhibition at 10 µM: HDAC6, 10 μM; for pIC50: HDAC6, Table 1, read-out: IC50
T1 sequence (Q9UBN7 1-1215): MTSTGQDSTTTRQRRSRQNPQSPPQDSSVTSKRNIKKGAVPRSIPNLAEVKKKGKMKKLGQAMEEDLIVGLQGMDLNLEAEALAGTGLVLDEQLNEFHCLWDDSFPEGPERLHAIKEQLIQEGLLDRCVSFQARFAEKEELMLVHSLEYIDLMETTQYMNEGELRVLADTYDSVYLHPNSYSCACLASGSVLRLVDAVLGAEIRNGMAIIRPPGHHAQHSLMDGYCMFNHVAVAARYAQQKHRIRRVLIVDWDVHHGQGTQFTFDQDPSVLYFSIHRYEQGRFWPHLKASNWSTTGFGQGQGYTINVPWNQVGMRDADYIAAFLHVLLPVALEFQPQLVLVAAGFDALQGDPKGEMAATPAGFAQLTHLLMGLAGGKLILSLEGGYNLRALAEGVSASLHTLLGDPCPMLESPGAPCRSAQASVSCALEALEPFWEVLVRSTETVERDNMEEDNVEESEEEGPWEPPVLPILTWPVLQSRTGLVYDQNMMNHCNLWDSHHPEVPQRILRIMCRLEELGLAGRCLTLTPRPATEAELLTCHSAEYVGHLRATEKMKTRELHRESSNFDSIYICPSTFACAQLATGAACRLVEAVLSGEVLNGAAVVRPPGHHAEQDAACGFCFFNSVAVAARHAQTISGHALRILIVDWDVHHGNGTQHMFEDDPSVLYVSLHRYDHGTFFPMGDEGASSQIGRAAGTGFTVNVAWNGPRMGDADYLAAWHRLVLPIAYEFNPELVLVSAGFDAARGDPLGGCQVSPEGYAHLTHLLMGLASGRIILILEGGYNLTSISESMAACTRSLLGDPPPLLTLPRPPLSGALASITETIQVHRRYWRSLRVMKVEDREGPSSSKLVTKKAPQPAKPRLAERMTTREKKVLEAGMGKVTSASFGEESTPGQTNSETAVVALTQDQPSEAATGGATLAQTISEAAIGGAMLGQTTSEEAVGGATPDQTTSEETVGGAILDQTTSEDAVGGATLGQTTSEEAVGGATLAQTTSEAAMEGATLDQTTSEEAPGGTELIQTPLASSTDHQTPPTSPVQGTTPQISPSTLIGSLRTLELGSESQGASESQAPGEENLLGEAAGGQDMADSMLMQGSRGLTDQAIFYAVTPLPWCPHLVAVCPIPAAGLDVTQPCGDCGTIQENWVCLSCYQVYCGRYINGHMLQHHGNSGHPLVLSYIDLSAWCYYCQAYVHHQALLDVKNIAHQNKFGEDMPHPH

[1] = system: glucocorticoid receptor, GR; experiment: GRE-dependent luciferase reporter p(GRE)2-50-luc in A549 cells; assay type: cell-based; conditions: A549; DEX 1 μM; CpdA 10 μM before DEX
AP-1 = conditions: published before; cited from earlier work
[2] = system: TNF-α and IL-6 in LPS stimulated human THP-1 macrophages; conditions: reported; cited from earlier work
[3] = system: acetylation of α-tubulin in Neuro-2a cells; experiment: Acetylation level of α-tubulin in Neuro-2a cells (Western blot); assay type: cell-based, Mouse; conditions: overnight, Neuro-2a; for normalized ratio Acetyl α-Tubulin/α-Tubulin against Tubastatin A, Average: Average of N = 1 to 4
Method: FIG. 1: Potency of inhibiting HDAC6 by compounds 7a, 7b and 13a in Neuro-2a cells. A. Cells were treated overnight with different concentrations of the HDAC6 inhibitors and blotted of the acetylation of α-tubulin.
Mouse neuroblastoma (Neuro-2a) cells were grown in a 1:1 mix of D-MEM (Dulbecco's Modified Eagle Medium) and F12 medium supplemented with glutamax (Invitrogen), 100 μg/ml streptomycin, 100 U/ml penicillin (Invitrogen), 10% fetal calf serum (Greiner Bio-one), 1% non-essential amino acids (Invitrogen) and 1.6% NaHCO3 (Invitrogen) at 37° C. and 7.5% CO2. To split the cells, cells were washed with Versene (Invitrogen) and dissociated with 0.05% Trypsine-EDTA (Invitrogen).
For sodium dodecyl sulfate-polyacrylamide gel electrophoresis (SDS-PAGE) analysis, transfected cells were collected using the EpiQuik Total Histone Extraction Kit (EpiGentek) according to manufacturer's instructions. Protein concentrations were determined using microBCA kit (Thermo Fisher Scientific Inc., Pittsburgh, Pa., USA) according to manufacturer's instructions. Before resolving the samples on a 12% SDS-PAGE gel, samples containing equal amounts of protein were supplemented with reducing sample buffer (Thermo Scientific) and boiled at 95° C. for 5 min. After electrophoresis, the proteins were transferred to a polyvinylidene difluoride (PVDF) membrane (Millipore Corp., Bedford, Mass., USA). The non-specific binding was blocked by incubation of the membrane in 5% bovine serum albumin (BSA), diluted in Tris Buffered Saline Tween (TBST, 50 mM TRIS, 150 mM NaCl, 0.1% Tween-20 (Applichem, Darmstadt, Duitsland) for 1 h at room temperature followed by incubation with primary antibodies overnight. The antibodies, diluted in TBS-T, were directed against α-tubulin (1/5000, T6199, Sigma-Aldrich), and acetylated α-tubulin (1/5000, T6793 monoclonal, Sigma-Aldrich). The secondary antibodies, coupled to alkaline phosphatase (anti-mouse or anti-rabbit, 1/5000, Sigma-Aldrich) were used. Blots were visualised by adding the ECF substrate (Enhanced Chemical Fluorescence, GE Healthcare, Uppsala, Sweden) and imaged with the ImageQuant_LAS 4000. A mild reblotting buffer (Millipore) was applied to strip the blots. ImageQuant TL version 7.0-software was used to quantify the blots.
Neuro-2a cells were treated overnight with different concentrations of the HDAC6 inhibitors and the effect on the acetylation level of α-tubulin was determined using Western blots (FIG. 1).

| inhibition at 10 µM (HDAC6) [%] | pIC50 (HDAC6) | melting point [°C] | SMILES | other results |
| --- | --- | --- | --- | --- |
| 89.8 | 6.18 | 190.5 | O=C(NO)c1ccc(NCc2csc3cc(-c4ccccc4)ccc23)cc1 [Compound 13b, 3-[(4-hydroxycarbamoylphenyl)aminomethyl]-6-phenyl-benzothiophene] | – |
| 70.7 | 5.68 | 97.5 | O=C(NO)c1ccc(N(Cc2ccccc2)Cc2csc3cc(Br)ccc23)cc1 [Compound 14a, 6-bromo-3-[N-benzyl-N-(4-hydroxycarbamoylphenyl)aminomethyl]-benzothiophene] | – |
| 61.1 | – | 102 | O=C(NO)c1ccc(N(Cc2ccccc2)Cc2csc3cc(-c4ccccc4)ccc23)cc1 [Compound 14b, 3-[N-benzyl-N-(4-hydroxycarbamoylphenyl)aminomethyl]-6-phenyl-benzothiophene] | – |

Continued, compound first:

| SMILES | inhibition at 10 µM (HDAC6) [%] | pIC50 (HDAC6) | melting point [°C] | other results |
| --- | --- | --- | --- | --- |
| O=C(NO)c1ccc(NCc2csc3ccc(-c4ccccc4)cc23)cc1 [Compound 7c, 3-[(4-hydroxycarbamoylphenyl)aminomethyl]-5-phenyl-benzothiophene] | 95.1 | 6.51 | 181 | – |
| Cc1cc(C(=O)NO)ccc1NCc1csc2ccccc12 [Compound 7d, 3-[(4-hydroxycarbamoyl-2-methylphenyl)aminomethyl]-benzothiophene] | 73.4 | 5.62 | 190 | – |
| O=C(NO)c1ccc(N(Cc2ccccc2)Cc2csc3ccccc23)cc1 [Compound 8a, 3-[N-benzyl-N-(4-hydroxycarbamoylphenyl)aminomethyl]-benzothiophene] | 89.9 | 6.33 | 178 | – |
| O=C(NO)c1ccc(N(Cc2ccccc2)Cc2csc3ccc(Br)cc23)cc1 [Compound 8b, 5-bromo-3-[N-benzyl-N-(4-hydroxycarbamoylphenyl)aminomethyl]-benzothiophene] | 84.9 | 6.07 | 179 | – |
| O=C(NO)c1ccc(N(Cc2ccccc2)Cc2csc3ccc(-c4ccccc4)cc23)cc1 [Compound 8c, 3-[N-benzyl-N-(4-hydroxycarbamoylphenyl)aminomethyl]-5-phenyl-benzothiophene] | 47.9 | – | 126 | – |
| O=C(NO)c1ccc(NCc2c[nH]c3ccccc23)cc1 [Compound 18, 3-[(4-hydroxycarbamoylphenyl)aminomethyl]indole] | 99 | 6.70 | 132.5 | – |
| CNCC(Cl)c1ccc(OC(C)=O)cc1.Cl (stereo not drawn) [CpdA, reference compound] | – | – | – | GRE-dependent reporter gene activity, reference compounds [1]: able to lower the GRE-dependent reporter gene activity; targeting of AP-1-driven promoters (AP-1): does not target AP-1-driven promoters |
| CN1CCc2c(c3ccccc3n2Cc2ccc(C(=O)NO)cc2)C1 [Tub A, Tubastatin A, reference compound] | – | – | – | inhibition of TNF-α and IL-6 [2]: significantly inhibit TNF-α and IL-6; normalized ratio Acetyl α-Tubulin/α-Tubulin against Tubastatin A, Average ([3]; 50 nM): 34.97 and 25.12 and 23.86; normalized ratio Acetyl α-Tubulin/α-Tubulin against Tubastatin A, Average ([3]; 100 nM): 44.00 and 41.43 and 34.18; normalized ratio Acetyl α-Tubulin/α-Tubulin against Tubastatin A, Average ([3]; 500 nM): 66.24 and 73.15 and 70.36; normalized ratio Acetyl α-Tubulin/α-Tubulin against Tubastatin A, Average ([3]; 1 μM): 100.00; normalized ratio Acetyl α-Tubulin/α-Tubulin against Tubastatin A ([3]; 1 μM, single experiments N = 1 to 4, Tub A 1 μM = 100): 100.00 |
